In series [1] the target is T1, cardiac beta-1-receptors (Felis catus, UniProt Q9TST6).
T1 construct: increases the pulse rate of narcotized cats (weighing 2-4 kg) by an average of 40%; from tissue; host or cells: heart of living narcotized cats (in vivo, endogenous receptor)
Kind of series: Beta-sympatholytic action: inhibition of isoproterenol-induced tachycardia in narcotized cats. Format: in vivo. The settings on record: for ED50: cat, iv, read-out: Beta-sympatholytic action ED50%: dose which inhibits the isoproterenol-induced tachycardia by 50%; for R.A. (relative activity) / factor by which doses blocking the cardiac beta-1-receptors are smaller than those of propranolol: cats; for R.A. (relative activity): Propranolol = 1.00; for factor by which doses blocking the cardiac beta-1-receptors are smaller than those of propranolol: versus propranolol. The procedure:
The beta-sympatholytic action of the compounds was tested on cats. […] The following test methods were used:
Beta-sympatholytic agents inhibit the tachycardia.
^1 Inhibition of isoproterenolinduced tachycardia in cats under
hexobarbital narcosis. Compound administered intravenously.

Series [2] has as its system cardiac beta-1-receptors. The settings on record: mouse, in vivo.
The nature of series [3]: in vivo. The settings on record: mouse, read-out: Acute toxicity LD50.

For orientation: ED50 means the dose at which the effect has come halfway, by size or by number of responders. A word on the LD50: it is the dose at which mortality reaches 50%.

T1 sequence (Q9TST6 whole entry): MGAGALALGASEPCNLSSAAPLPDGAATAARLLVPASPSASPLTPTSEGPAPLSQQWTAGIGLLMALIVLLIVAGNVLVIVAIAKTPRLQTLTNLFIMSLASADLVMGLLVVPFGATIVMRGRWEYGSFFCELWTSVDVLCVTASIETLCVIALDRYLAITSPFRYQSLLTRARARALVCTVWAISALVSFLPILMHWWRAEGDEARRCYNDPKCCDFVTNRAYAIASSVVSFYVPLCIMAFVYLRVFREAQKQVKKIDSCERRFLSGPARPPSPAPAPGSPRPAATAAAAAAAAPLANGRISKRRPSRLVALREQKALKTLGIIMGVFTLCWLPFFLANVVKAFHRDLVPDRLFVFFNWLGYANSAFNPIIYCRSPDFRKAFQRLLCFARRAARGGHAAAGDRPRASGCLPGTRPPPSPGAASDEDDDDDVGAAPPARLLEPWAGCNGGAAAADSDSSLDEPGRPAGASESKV

Consider `Cc1nnc(/C=C/c2ccccc2OCC(O)CNC(C)C)s1` (stereo not shown) [Compound 3, 2-Methyl-5-[2-(2-hydroxy-3-isopropylamino-propoxy)-styryl]-1,3,4-thiadiazol], for which, in series [1], the ED50 is 0.01 mg/kg and the “R.A. (relative activity)” value was 14.10. The compound further showed a Therapeutic range relative in series [2] of 10.84. The median lethal dose (LD50) in series [3] came out at 83 mg/kg.

As to `Cc1nnc(/C=C/c2ccccc2OCC(O)CNC(C)(C)C)s1` (stereo not shown) [Compound 5, 2-Methyl-5-[2-(2-hydroxy-3-tert.-butylamino-propoxy)-styryl]-1,3,4-thiadiazole], in series [1], the “R.A. (relative activity)” value was found to be 25.22 and the “factor by which doses blocking the cardiac beta-1-receptors are smaller than those of propranolol” value was 25. This compound also displayed a Therapeutic range relative in series [2] of 13.73.

Take `C#CC(C)NCC(O)COc1ccccc1/C=C/c1nnc(C)s1` (stereo not shown) [Compound 6, 2-Methyl-5-[2-(2-hydroxy-3-(1-butyn-3-ylamino)-propoxy)styryl]-1,3,4-thiadiazole]: in series [1], the ED50 worked out at 0.0111 mg/kg and the “R.A. (relative activity)” value is 12.70. For the same compound, in series [2], the Therapeutic range relative was determined as 30.68. Besides, the LD50 in series [3] was found to be 261 mg/kg.

`Cc1nnc(/C=C/c2ccccc2OCC(O)CNC2CC2)s1` (stereo not shown) [Compound 4, 2-Methyl-5-[2-(2-hydroxy-3-cyclopropylamino-propoxy)-styryl]-1,3,4-thiadiazole]: in series [1], the ED50 turned out to be 0.012 mg/kg, the “R.A. (relative activity)” value came out at 11.75 and the “factor by which doses blocking the cardiac beta-1-receptors are smaller than those of propranolol” value was determined as 12. The compound further gave a Therapeutic range relative in series [2] of 7.55. For the same compound, the LD50 in series [3] was 69.4 mg/kg.

These data come from US4263430A, “2-Methyl-5-(2-hydroxystyryl)-1,3,4-thiadiazole” (BASF Aktiengesellschaft, priority 1978, dated 1981).
